The test system of data set [1] is SH-SY5Y. As to the kind of experiment: Neuroprotective activity against […]-induced cell death in human SH-SY5Y cells assessed as increase in cell viability preincubated for 1 hr followed by […] stimulation and measured after 24 hrs by MTT assay. Type of data set: functional, cell-based. The following applies: dose 10-50 µM, time 25.0 hrs. (In general: Tetrazolium dyes change colour on reduction, which living cells bring about.)

Data set [2] is described as follows: Cytotoxicity against human SH-SY5Y cells assessed as cell viability at 50 uM measured after 24 hrs by MTT assay relative to control. Type of data set: cell-based. The following applies: read-out: Activity.
The subject of data set [3] is SH-SY5Y. As to the kind of experiment: Cytotoxicity against human SH-SY5Y cells assessed as reduction in cell viability at 10 to 50 uM measured after 24 hrs by MTT assay. The format is cell-based. To be noted: dose 10-50 µM.
Data set [4] deals with SH-SY5Y. As to the kind of experiment: Neuroprotective activity against […]-induced cell death in human SH-SY5Y cells at 10 to 50 uM preincubated for 1 hr followed by […] stimulation and measured after 24 hrs by MTT assay relative to control. To be noted: dose 10-50 µM, time 25 hrs. Type of data set: functional.
Data set [5] relates to SH-SY5Y. As to the kind of experiment: Neuroprotective activity against […]-induced cell death in human SH-SY5Y cells assessed as cell viability at 1 uM preincubated for 1 hr followed by […] stimulation and measured after 24 hrs by MTT assay relative to control. Type of data set: functional. To be noted: time 25 hrs, read-out: Activity.

As for `NC1=NN(c2ccccc2)C(=O)C12[C@@H](c1ccc(Cl)cc1)c1c([nH]n(-c3ccccc3)c1=O)N[C@H]2c1ccc(Cl)cc1` (stereo partly drawn), the Activity result in the data set with SH-SY5Y [1] was “Dose-dependent effect”; in the data set on SH-SY5Y [3], “Non-Toxic”; in the data set with SH-SY5Y [4], 20.05%. Moreover, the viability at 24 h, 50 µM in data set [2] was 84.9%.

As to `NC1=NN(c2ccccc2)C(=O)C12[C@@H](c1ccccc1[N+](=O)[O-])c1c([nH]n(-c3ccccc3)c1=O)N[C@H]2c1ccccc1[N+](=O)[O-]` (stereo partly drawn), the Activity result with SH-SY5Y [1] was “Dose-dependent effect”; in the data set on SH-SY5Y [3] it was “Non-Toxic”; in the data set on SH-SY5Y [4], 20.21%.

In the data set with SH-SY5Y [4], `NC1=NN(c2ccccc2)C(=O)C12[C@@H](c1cccc(Br)c1)c1c([nH]n(-c3ccccc3)c1=O)N[C@H]2c1cccc(Br)c1` (stereo in doubt; 3c-2) [listing 1 of 2 here] showed an Activity of 33.52%.

In the case of `NC1=NN(c2ccccc2)C(=O)C12[C@@H](c1cccc([N+](=O)[O-])c1)c1c([nH]n(-c3ccccc3)c1=O)N[C@H]2c1cccc([N+](=O)[O-])c1` (stereo partly drawn), the Activity result with SH-SY5Y [1] was “Dose-dependent effect”; in the data set with SH-SY5Y [3] it was “Non-Toxic”; in the data set on SH-SY5Y [4], 22.81%.

Take `NC1=NN(c2ccccc2)C(=O)C12[C@@H](c1cccc(Br)c1)c1c([nH]n(-c3ccccc3)c1=O)N[C@H]2c1cccc(Br)c1` (stereo in doubt; 3c-2) [listing 2 of 2 here]: the Activity entry in the data set with SH-SY5Y [1] was “Dose-dependent effect”.

As to `COc1cc(/C=C/C(=O)CC(=O)/C=C/c2ccc(O)c(OC)c2)ccc1O` [CURCUMIN], the viability at 1 µM in the data set with SH-SY5Y [5] was determined as 80.7%.

For the compound `NC1=NN(c2ccccc2)C(=O)C12[C@@H](c1cccc(Br)c1)c1c([nH]n(-c3ccccc3)c1=O)N[C@H]2c1cccc(Br)c1` (stereo in doubt; 3c-1) [listing 1 of 2 here], the Activity result with SH-SY5Y [1] is “Dose-dependent effect”.

Consider `NC1=NN(c2ccccc2)C(=O)C12[C@@H](c1ccccc1)c1c([nH]n(-c3ccccc3)c1=O)N[C@H]2c1ccccc1` (stereo partly drawn), for which the Activity result in the data set on SH-SY5Y [1] is “Dose-dependent effect”; in the data set on SH-SY5Y [3], “Non-Toxic”; in the data set on SH-SY5Y [4] it was 27.03%.

As to `COc1ccc([C@H]2c3c([nH]n(-c4ccccc4)c3=O)N[C@@H](c3ccc(OC)cc3)C23C(=O)N(c2ccccc2)N=C3N)cc1` (stereo partly drawn), the values for the Activity entry with SH-SY5Y [1], with SH-SY5Y [3] and with SH-SY5Y [4] were “Dose-dependent effect”, “Non-Toxic” and 26.54%, respectively.

`NC1=NN(c2ccccc2)C(=O)C12[C@@H](c1cccs1)c1c([nH]n(-c3ccccc3)c1=O)N[C@H]2c1cccs1` (stereo partly drawn): the Activity entry in the data set with SH-SY5Y [1] is “Dose-dependent effect”; with SH-SY5Y [3] it was “Non-Toxic”; with SH-SY5Y [4], 18.43%.

Take `NC1=NN(c2ccccc2)C(=O)C12[C@@H](c1cccc(Br)c1)c1c([nH]n(-c3ccccc3)c1=O)N[C@H]2c1cccc(Br)c1` (stereo in doubt; 3c-1) [listing 2 of 2 here]: the Activity result with SH-SY5Y [3] is reported as “Non-Toxic”; with SH-SY5Y [4], 30.11%.

On to `Cc1ccc([C@H]2c3c([nH]n(-c4ccccc4)c3=O)N[C@@H](c3ccc(C)cc3)C23C(=O)N(c2ccccc2)N=C3N)cc1` (stereo partly drawn), for which the Activity entry was “Dose-dependent effect” in the data set with SH-SY5Y [1], “Non-Toxic” in the data set with SH-SY5Y [3] and 28.66% in the data set with SH-SY5Y [4].

Values taken from ChEMBL document CHEMBL4732149, “Evaluation of the cellular protection by novel spiropyrazole compounds in dopaminergic cell death” (Eur J Med Chem, 2021).
